These results are taken from US4281009A, “Hydantoin derivatives” (Nippon Zoki Pharmaceutical Co., Ltd., priority 1978, dated 1981).

For one series, the system named is isolated duodenum. The experiment in a line: Recovery of acetylcholine sensitivity of isolated duodenum of SART stress mice (Magnus method). In kind it is in vivo, mice (dd-strain male). As to conditions: 6th day, Ach 10^-7 g/ml, Average ± S.E. From the text:
(§1) SART stress animals used in the tests described below were raised according to a method of Kita, et al. [Folia Pharmacol. Japan.: 71, 195-210 (1975)].
3. Effect of recovering acetylcholine (Ach) sensitivity of isolated intestinal tract:
Groups each comprising at least 10 dd-strain male mice were used. The compounds of the present invention or other comparative drugs were given intraperitoneally once a day during the stress-causing operation. On the 6th day, Ach (10^-7 g/ml.) sensitivity of isolated duodenum was examined using the Magnus method.

A short description of series [1]: Acute toxicity test (LD50, Litchfield-Wilcoxon), mice. As to conditions: mouse, in vivo, ip, intraperitoneal. The procedure:
(§2) Toxicity tests were carried out by intraperitoneal administration of the compound of the present invention to groups each comprising 10 ICR-strain mice and SD-strain rats. LD50 was calculated by the Litchfield-Wilcoxon method based on the number of death 72 hours after the administration.

The nature of series [2]: Acute toxicity test (LD50, Litchfield-Wilcoxon), rats. To be noted: rat, in vivo, ip, intraperitoneal. As to the method: as §2
For another series, the system named is SART stress mice. The experiment in a line: Inhibitory effects on increase of heart rate and elongation of QRS-time in SART stress mice. Type of series: in vivo, mice (dd-strain male). As to conditions: 100 mg/kg/day, 9th day, Average ± S.D. As to the method: as §1
2. Inhibitory effects on increase of heart rate and elongation of QRS-time in stress animals:
Groups of mice each comprising 11 or 12 dd-strain male mice were divided into three groups in the same manner as above and heart rate and QRS-time were determined on the 9th day after initiation of the tests.

For series [3], the system named is normal mice and SART stress mice. Description: Analgesic effect, tail pressure method (Randall-Selitto's device). In kind it is in vivo, mice (ddY-strain male). As to conditions: 60 minutes; for change in vivo at 100 mg/kg / change in vivo at 200 mg/kg: Mus musculus, ip, 1 h; for change in vivo at 100 mg/kg: intraperitoneal 100 mg/kg; for Analgesic effect: intraperitoneal 50 mg/kg; for change in vivo at 200 mg/kg: intraperitoneal 200 mg/kg. As to the method:
5.1 Tail pressure method:
Randall-Selitto's device for determining analgesic effect by pressure stimulation was used. […]. The compounds of the present invention or other comparative drugs were given thereto and analgesic effect was determined. The effect was judged by measuring pressure applied 60 minutes after the intraperitoneal administration of the compounds of the present invention. The pressure thus measured was divided by a pressure before the administration. The value thus obtained was compared with that of a control group (to which 10 ml./Kg of 0.5% sodium salt of carboxymethylcellulose or 0.5% Tween 80 was given). When the compounds of the present invention were given perorally and other comparative drugs were given, an average of the pressure at 30, 60, 90 and 120 minutes after the administration was employed for evaluating the effect.

For series [4] the test system is unchanged. Description: Analgesic effect, acetic acid writhing method. As to conditions: Mus musculus, sc, 100 mg/Kg subcutaneously. In kind it is in vivo. The procedure:
5.2. Acetic acid writhing method: 0.1 ml./10 g of isotonic sodium chloride solution containing 0.7% acetic acid was given intraperitoneally to groups of mice each comprising 5 normal mice and 5 SART stress mice to which SART stress had been applied for 8 days. Writhing syndromes number appeared for 15 minutes after the administration was measured. The effect was evaluated by giving 100 mg/Kg of the compounds of the present invention or DPH subcutaneously and comparing the writhing syndromes number of the mice with that of control mice.
A general note: Writhing tests count abdominal constrictions after an irritant is injected.

For series [5] the test system is unchanged. Description: Analgesic effect, D'Amour-Smith method. As to conditions: Mus musculus, ip; for responders at 100 mg/kg: intraperitoneal 100 mg/kg; for responders at 200 mg/kg: intraperitoneal 200 mg/kg. Type of series: in vivo, mice (ddY-strain male). As to the method:
5.3. D'Amour-Smith method:
Groups each comprising 10 ddY-strain male normal mice and SART stress mice to which SART stress had been applied for 4 days were used. The root of the tail of the mouse to which black ink was applied was irradiated with infrared rays for up to 15 seconds. Time required till escape response was observed was measured. The effect was shown by the ratio of the mice in which an average value of the response time at 30, 60, 90 and 120 minutes after the administration of the compounds of the present invention or other comparative drugs was prolonged to at least 2 times as long as the time before the administration.

The next series relates to ddY-strain male mice. Description: Effect of prolongation of sleeping time (hexobarbital). To be noted: Mus musculus, ip; for change in vivo at 100 mg/kg: 100 mg/kg intraperitoneal; for change in vivo at 300 mg/kg: 300 mg/kg intraperitoneal. In kind it is in vivo. As to the method:
7. Effect of prolongation of sleeping time:
Groups of mice each comprising 10 ddY-strain male mice were used. Sodium salt of hexobarbital was given intraperitoneally. Thereafter, the period of time in which righting reflex disappeared was measured. The effect was evaluated on the basis of prolongation of time of disappearance of righting reflex by the intraperitoneal administration of the compounds of the present invention as compared with control mice.

For another series, the system named is dd-strain male mice. The experiment in a line: Antiulcerogenic effect on Takagi's restraint-plus-water-immersing ulcer. Type of series: in vivo. As to conditions: Mus musculus, ip; 150 mg/kg intraperitoneal. As to the method:
6.1 Antiulcerogenic effect on Takagi's restraint-plus-water-immersing ulcer: Groups each comprising 8-26 dd-strain male mice were used. The tests were carried out according to a method of Takagi, et al. [Chem. Pharm. Bull.; 12, 465 (1964)]. Sum of length of diseased parts in the glandular stomach was measured and it was compared with that of control group. The compounds of the present invention or DPH was given intraperitoneally immediately before the restraint and immersion in water.

Another series concerns Wistar-strain male rats. The experiment in a line: Antiulcerogenic effect on Shay's ulcer (operative ulcer). In kind it is in vivo. To be noted: 150 mg/kg intraperitoneal, 10 times. The procedure:
6.2. Antiulcerogenic effect on Shay's ulcer (operative ulcer):
Tests were carried out by using groups of rats each comprising 5-10 Wistar-strain male rats according to Shay method [Shay Harry; Gastroenterology,; 5, 43 (1945)]. Ulcers in the anterior stomach were classified on the following basis:
2. 1-5 small ulcers (diameter of less than 3 mm)
3. 6 or more small ulcers or one big ulcer (diameter of more than 3 mm)
4. two or more big ulcers

Where only a bound is given, the exact number is not on record here.

Regarding `NC(=O)C1(N2CCCCC2)CCN(CCCN2c3ccccc3CCc3ccccc32)CC1` [Carpipramine], the figures for the “Ach-induced contraction of the isolated deodedum” value (shortened to “Ach-induced contraction”) in the series on isolated duodenum (5 mg/kg/day intraperitoneal) and in the series with isolated duodenum (10 mg/kg/day intraperitoneal) were 52 ± 6% and 110 ± 26%, respectively.

Consider `CN(C)CCCN1c2ccccc2Sc2ccc(Cl)cc21` [Chlorpromazine], for which the results for the “Ach-induced contraction” value with isolated duodenum (0.1 mg/kg/day intraperitoneal) and in the series on isolated duodenum (0.5 mg/kg/day intraperitoneal) were 45 ± 12% and 81 ± 17%, respectively.

As for `COc1ccc(C2(c3ccc(OC)c(C)c3)NC(=O)NC2=O)cc1` (centres unmarked) [Compound 3, 5-(4-methoxy-3-methylphenyl)-5-(4-methoxyphenyl)hydantoin], the LD50 at 72 h in [1] (female), in series [1] (male), in series [2] (female) and in series [2] (male) was > 5000 mg/kg in each case. Also, the Heart rate in the series on SART stress mice turned out to be 710 ± 83 min⁻¹. Also, in the series on SART stress mice, the QRS-time was 13.1 ± 1.7 1/1000 sec. Moreover, the change in vivo at 100 mg/kg in [3] (SART stress mice) came to 91%; in [3] (normal mice), 47.4%; in the series on ddY-strain male mice, 76.6%. The Analgesic effect in series [3] (SART stress mice) turned out to be 60.3%; in series [3] (normal mice), 44.3%. Further, the inhibition in vivo at 100 mg/kg in [4] (SART stress mice) was 22%; in series [4] (normal mice), 2%. Further, the figures for the responders at 100 mg/kg in series [5] (SART stress mice) and in [5] (normal mice) were 40% and 30%, respectively. The same compound returned a change in vivo at 300 mg/kg in the series with ddY-strain male mice of 93.9%.

In the case of `O=C1NC(=O)C(c2ccccc2)(c2ccc(F)cc2)N1` (centres unmarked) [Compound 5, 5-(4-Fluorophenyl)-5-phenylhydantoin], the LD50 at 72 h in [1] (female) amounted to 810 mg/kg; in series [1] (male) it was 840 mg/kg; in [2] (female), 1100 mg/kg; in [2] (male) it was 1180 mg/kg. Also, the change in vivo at 100 mg/kg worked out at 95% in [3] (SART stress mice), 19.8% in series [3] (normal mice) and 31% in the series with ddY-strain male mice. The results for the responders at 100 mg/kg in series [5] (SART stress mice) and in series [5] (normal mice) were 40% and 10%, respectively. The inhibition in vivo at 150 mg/kg in the series on dd-strain male mice is 22.8%. Moreover, the “Antiulcerogenic effect on Shay's ulcer (operative ulcer)” value in the series on Wistar-strain male rats was 20.7%. Also, the change in vivo at 300 mg/kg in the series on ddY-strain male mice is 38.1%.

On to `O=C1NC(=O)C(c2ccc(O)cc2)(c2ccc(O)c(O)c2)N1` (centres unmarked) [Compound 14, 5-(3,4-Dihydroxyphenyl)-5-(4-hydroxyphenyl)hydantoin], for which the 50% lethal dose (LD50) at 72 h in [1] (female) came out at 1200 mg/kg; in series [1] (male), 1280 mg/kg; in series [2] (female) it was 1480 mg/kg; in series [2] (male) it was 1500 mg/kg. Besides, the change in vivo at 100 mg/kg was found to be 102% in [3] (SART stress mice), 42.6% in series [3] (normal mice) and 20.2% in the series on ddY-strain male mice. Besides, the Analgesic effect in series [3] (SART stress mice) came to 78.3%; in series [3] (normal mice), 35.2%. Moreover, the inhibition in vivo at 100 mg/kg came to 36.2% in series [4] (SART stress mice) and 5% in series [4] (normal mice). Moreover, the figures for the responders at 100 mg/kg in series [5] (SART stress mice) and in series [5] (normal mice) were 60% and 30%, respectively.

Turning to `COc1cc(C2(c3cc(OC)c(OC)c(OC)c3)NC(=O)NC2=O)cc(OC)c1OC` [Compound 23, 5,5-Bis(3,4,5-trimethoxyphenyl)hydantoin], the 50% lethal dose (LD50) at 72 h in series [1] (female), in series [1] (male), in series [2] (female) and in [2] (male) was > 5000 mg/kg each time. Moreover, the change in vivo at 100 mg/kg in series [3] (SART stress mice) amounted to 66%; in series [3] (normal mice), 38.1%; in the series with ddY-strain male mice it was 19.9%. Moreover, the responders at 200 mg/kg was determined as 40% in series [5] (SART stress mice) and 20% in series [5] (normal mice). The compound further showed a change in vivo at 300 mg/kg with ddY-strain male mice of 22.6%.

Take `CCC1(c2ccccc2O)NC(=O)NC1=O` (centres unmarked) [Compound 25, 5-Ethyl-5-(2-hydroxyphenyl)hydantoin]: the 50% lethal dose (LD50) at 72 h is 1040 mg/kg in [1] (female), 1230 mg/kg in [1] (male), 1480 mg/kg in series [2] (female) and 1600 mg/kg in series [2] (male). Also, the change in vivo at 200 mg/kg amounted to 49% in series [3] (SART stress mice) and 35.5% in series [3] (normal mice). The inhibition in vivo at 100 mg/kg in [4] (SART stress mice) is 19.8%; in series [4] (normal mice), 1.9%. Further, the change in vivo at 300 mg/kg in the series on ddY-strain male mice was found to be 55.4%.

`CN1C(=O)CN=C(c2ccccc2)c2cc(Cl)ccc21` [Diazepam]: the “Ach-induced contraction” value with isolated duodenum (5 mg/kg/day intraperitoneal) was found to be 25 ± 6%.

Regarding `CN(C)CCOC(c1ccccc1)c1ccccc1` [Diphenhydramine], the “Ach-induced contraction” value with isolated duodenum (10 mg/kg/day intraperitoneal) worked out at 25 ± 5%.

With `CN(C)CCCN1c2ccccc2CCc2ccccc21` [Imipramine], the “Ach-induced contraction” value with isolated duodenum (5 mg/kg/day intraperitoneal) was found to be 44 ± 15%; with isolated duodenum (10 mg/kg/day intraperitoneal) it was 100 ± 4%.

On to `CCCC(C)(COC(N)=O)COC(N)=O` [Meprobamate], for which, in the series on isolated duodenum (5 mg/kg/day intraperitoneal), the “Ach-induced contraction” value came out at 31 ± 2%.

With `COC(=O)[C@H]1[C@H]2C[C@@H]3c4[nH]c5cc(OC)ccc5c4CCN3C[C@H]2C[C@@H](OC(=O)c2cc(OC)c(OC)c(OC)c2)[C@@H]1OC` [Reserpine], the “Ach-induced contraction” value amounted to 75 ± 10% in the series with isolated duodenum (0.1 mg/kg/day intraperitoneal) and 104 ± 15% in the series on isolated duodenum (0.5 mg/kg/day intraperitoneal).

The term LD50 denotes the dose expected to kill half of the subjects tested. A lower LD50 goes with greater toxicity. Usually inhibition in vivo stands for the change of the read-out against control, counted positive when it falls.
